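Briefly, cells in 96-well plates were exposed to five compound concentrations for 48 h, and endpoints were estimated by linear interpolation. Here, GI50 denotes the concentration required for 50% inhibition of growth. TGI is the concentration that stops growth completely.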
How the values were obtained:
Assay in all cases: DTP human tumour cell line panel, 48 h
786-0 renal = test system: 786-0 renal
RXF 393 renal = test system: RXF 393 renal
KM12 colon = test system: KM12 colon
OVCAR-5 ovarian = test system: OVCAR-5 ovarian
IGROV1 ovarian = test system: IGROV1 ovarian
SF-268 CNS = test system: SF-268 CNS
NCI-H460 lung = test system: NCI-H460 lung
CCRF-CEM leukemia = test system: CCRF-CEM leukemia
UO-31 renal = test system: UO-31 renal
M14 melanoma = test system: M14 melanoma
SK-OV-3 ovarian = test system: SK-OV-3 ovarian
SK-MEL-2 melanoma = test system: SK-MEL-2 melanoma

SMILES | TGI (786-0 renal) [µM] | TGI (RXF 393 renal) [µM] | TGI (KM12 colon) [µM] | TGI (OVCAR-5 ovarian) [µM] | TGI (IGROV1 ovarian) [µM] | TGI (SF-268 CNS) [µM] | TGI (NCI-H460 lung) [µM] | TGI (CCRF-CEM leukemia) [µM] | TGI (UO-31 renal) [µM] | TGI (M14 melanoma) [µM] | TGI (SK-OV-3 ovarian) [µM] | TGI (SK-MEL-2 melanoma) [µM] | GI50 (RXF 393 renal) [µM] | GI50 (KM12 colon) [µM] | GI50 (OVCAR-5 ovarian) [µM] | GI50 (SK-OV-3 ovarian) [µM] | GI50 (NCI-H460 lung) [µM] | GI50 (CCRF-CEM leukemia) [µM] | GI50 (UO-31 renal) [µM]
O=C(O)c1ccc(Nc2nc3cc(C(F)(F)F)ccc3nc2-c2ccccc2)cc1 | 35 | 81.5 | 35.3 | 97.7 | 35.9 | > 100 | 75.7 | > 100 | 36.9 | – | – | – | – | – | – | – | – | – | –
O=C(O)CCC(NC(=O)c1ccc(CNc2nc3ccccc3nc2C(=O)O)cc1)C(=O)O (stereo unspecified) | > 100 | – | > 100 | > 100 | > 100 | > 100 | – | > 100 | > 100 | > 100 | > 100 | > 100 | – | – | – | – | – | – | –
Nc1ccccc1N=Nc1c(S(=O)(=O)O)cc2cc(S(=O)(=O)O)cc(O)c2c1O | > 100 | > 100 | > 100 | > 100 | > 100 | > 100 | – | > 100 | > 100 | > 100 | > 100 | – | – | – | – | – | – | – | –
CC(O[Si](c1ccccc1)(c1ccccc1)C(C)(C)C)[C@H](NC(=O)OC(C)(C)C)C(=O)O (stereo partly specified) | > 100 | > 100 | > 100 | > 100 | 50.2 | > 100 | > 100 | > 100 | > 100 | > 100 | > 100 | – | – | – | – | – | – | – | –
COc1ccc(-c2nc(-c3cnccn3)n(COCCO)n2)cc1 | > 100 | > 100 | > 100 | > 100 | > 100 | > 100 | > 100 | > 100 | > 100 | > 100 | > 100 | – | – | – | – | – | – | – | –
O=C1CN(c2ccc(Cl)cc2)C(=O)CN1NCNN1CC(=O)N(c2ccc(Cl)cc2)CC1=O | > 100 | > 100 | > 100 | > 100 | > 100 | > 100 | > 100 | > 100 | > 100 | > 100 | > 100 | – | – | – | – | – | – | – | –
C=C1CC(COc2ccc3c(C)cc(=O)oc3c2)(c2ccccc2)OC1=O (stereo unspecified) | 2.79 | – | > 27.7 | 24.5 | 3.57 | 23.9 | 23.5 | – | 14.5 | 2.66 | 14.9 | 3.65 | – | – | – | – | – | – | –
Cc1ccc(C2CC(c3cccc(Nc4ccncc4)c3)=NN2c2ccccc2)cc1 (stereo unspecified) | – | 3.02 | 3.25 | 3.19 | – | – | 3.33 | 77.9 | 2.74 | – | 5.88 | – | 1.61 | 1.75 | 1.68 | 2.34 | 1.8 | 3.95 | 1.41
N#CCCN(CCC#N)c1ccc(C(N=Nc2ccc(Cl)cc2)=Nc2ccc(F)cc2)cc1 | > 100 | > 100 | > 100 | > 100 | > 100 | > 100 | > 100 | > 100 | > 100 | > 100 | > 100 | – | – | – | – | – | – | – | –
CC(=O)O[C@@H]1O[Si](C(C)(C)C)(C(C)(C)C)[C@H](C)[C@H]1C | > 100 | – | > 100 | > 100 | > 100 | – | – | > 100 | > 100 | > 100 | > 100 | > 100 | – | – | – | – | – | – | –
O=C(c1ccccc1)c1c(CC(O)c2ccccc2)n(C(=O)c2ccccc2)c2ccccc12 (stereo unspecified) | > 100 | – | > 100 | > 100 | > 100 | > 100 | > 100 | > 100 | 60.6 | > 100 | – | > 100 | – | – | – | – | – | – | –
CC(C)CN(CC#N)CC(C)C | > 100 | > 100 | > 100 | > 100 | > 100 | > 100 | > 100 | – | > 100 | > 100 | > 100 | – | – | – | – | – | – | – | –
Cc1c2c(ccc3ccccc32)c[n+]2ccccc12 | > 100 | – | 11.8 | > 100 | – | 11.3 | – | 36.5 | > 100 | 40.9 | – | 33.7 | – | – | – | – | – | – | –
Cc1cc(C)n(C(=O)CSc2nnc(SCC(=O)n3nc(C)cc3C)s2)n1 | > 100 | > 100 | > 100 | > 100 | – | > 100 | > 100 | > 100 | > 100 | > 100 | > 100 | – | – | – | – | – | – | – | –
O=C(Nc1nc(C23CC4CC(CC(C4)C2)C3)cs1)c1cc2c(ccc3ccccc32)oc1=O | > 100 | – | > 100 | > 100 | > 100 | > 100 | > 100 | > 100 | > 100 | – | – | – | – | – | – | – | – | – | –
CN(C)CCCNC(=O)c1cc(NC(=O)c2cc(NC(=O)[C@@H]3C[C@H]3C(=O)Nc3cc(C(=O)Nc4cc(C(=O)NCCCN(C)C)n(C)c4)n(C)c3)cn2C)cn1C | > 100 | – | > 100 | > 100 | > 100 | > 100 | > 100 | > 100 | – | > 100 | – | > 100 | – | – | – | – | – | – | –
O=C1NC(S(=O)(=O)O)=NNC12c1ccccc1-c1ccccc12 | > 10 | > 10 | > 10 | – | > 10 | > 10 | > 10 | > 10 | > 10 | > 10 | > 10 | – | – | – | – | – | – | – | –

From PubChem BioAssay (NCI)
